Data set [1] has as its system human ovarian cancer cell line (SK-OV-3). In words: SRB cytotoxicity evaluation, SK-OV-3. Format: cell-based. The following applies: for IC50: SRB, SK-OV-3. The protocol: (§1) To verify the cytotoxic effect of the compounds prepared in Examples above, cytotoxicity was induced in cancer cells and SRB (Sulforhodamin B dye-staining) evaluation was conducted.
(§2) Each compound prepared in Examples was dissolved in 10% DMSO. 10 μL of the solution and 190 μL of cell suspension (5×10^4 cells/ml) were placed in standard 96-well plate and cultured in 5% CO2 condition at 37° C. for 3 days. 190 μL of the same cell suspension was placed in at least 16 wells, followed by cultivation at 37° C. for 30 minutes, and used as zero-day control. After cultivation for a predetermined period of time, cells were fixed by adding 50 μL of 50% trichloroacetic acid in each well, followed by incubation at 4° C. for 30 minutes. Cells were washed with water 5 times, dried at room temperature, and stained by adding 100 μL of 1% acetic acid solution containing […] in each well, and then washed with 1% acetic acid after 1 hour and dried in air. 200 μL of 10 mM Tris-base was added in each well and stirred well, thereby dissolving the bound staining agent, followed by measurement of absorbance at 515 nm by using ELISA reader. Viability was determined based on the difference between the zero-day control group and 10% DMSO-treated control group. Viability about ellipticin and doxorubicin were also measured for comparison.
(§3) Meanwhile, SRB evaluation was also conducted for human lung cancer cell line (A549), human ovarian cancer cell line (SK-OV-3), human melanoma cell line (SK-MEL-2), human central nervous system tumor cell line (XF498), and human colon cancer cell line (HCT15), and the results are shown in TABLE 2.

Data set [2] has as its system human lung cancer cell line (A549). The data set is described as follows: SRB cytotoxicity evaluation, A549. Format: cell-based. The settings on record: for IC50: SRB, A549. The protocol: as §1, §2, §3
In data set [3] the test system is human colon cancer cell line (HCT15). The data set is described as follows: SRB cytotoxicity evaluation, HCT15. Format: cell-based. The procedure:
as §1, §2, §3

The test system of data set [4] is human fibrosarcoma cell line (HT1080). In words: SRB cytotoxicity evaluation, HT1080. Format: cell-based. The settings on record: for IC50: SRB, 3 days culture, HT1080. The protocol: as §1
(§4) Cancer cell lines used herein (NCI, US) was human gastric cancer cell line (SNU-638), human colon cancer cell line (Col2), human fibrosarcoma cell line (HT1080), and human myelogenous leukemia cell line (HL-60).
as §2

The test system of data set [5] is human myelogenous leukemia cell line (HL-60). The data set is described as follows: SRB cytotoxicity evaluation, HL-60. The format is cell-based. The settings on record: 3 days culture. The protocol: as §1, §4, §2
The subject of data set [6] is human colon cancer cell line (Col2). The data set is described as follows: SRB cytotoxicity evaluation, Col2. Format: cell-based. The following applies: 3 days culture. The procedure:
as §1, §4, §2

For data set [7], the system named is human gastric cancer cell line (SNU-638). The data set is described as follows: SRB cytotoxicity evaluation, SNU-638. Format: cell-based. The following applies: 3 days culture. The protocol:
as §1, §4, §2

The subject of data set [8] is human central nervous system tumor cell line (XF498). The data set is described as follows: SRB cytotoxicity evaluation, XF498. The format is cell-based. The settings on record: for IC50: SRB, XF498. The procedure: as §1, §2, §3
In data set [9] the test system is human melanoma cell line (SK-MEL-2). The data set is described as follows: SRB cytotoxicity evaluation, SK-MEL-2. The format is cell-based. The following applies: for IC50: SRB, SK-MEL-2. The procedure: as §1, §2, §3
For data set [10], the system named is human gastric cancer adenocarcinoma cell line. The following applies: cited from earlier work.
[11] abbreviates: comparison among tested compounds, in words.

Where two headings read alike, the source gives them in different places.

The term IC50 denotes the point on the concentration scale where inhibition reaches its midpoint. As to `CCCCn1nnc2c1C(=O)c1cnncc1C2=O` [Example 5a, 1-n-butyl-1H-[1,2,3]triazolo[4,5-g]phthalazin-4,9-dione], the IC50 was determined as 21 nM in data set [1] (Homo sapiens); 81 nM in data set [2] (Homo sapiens); 177 nM in [3] (Homo sapiens, HCT-15); 99 nM in data set [4] (Homo sapiens, HT-1080, 72 h); 89 nM in data set [5] (Homo sapiens, 72 h); 421 nM in data set [6] (Homo sapiens, 72 h). Further, the IC50 in data set [7] (Homo sapiens, 72 h) came out at 155 nM; in data set [8] (Homo sapiens), 181 nM; in [9] (Homo sapiens), 23 nM.
On to `CCn1nc2c(n1)C(=O)c1cnncc1C2=O` [Example 3b, 2-ethyl-2H-[1,2,3]triazolo[4,5-g]phthalazin-4,9-dione], for which the 50% inhibitory concentration (IC50) in data set [1] (Homo sapiens) was 3 nM; in data set [2] (Homo sapiens) it was 18 nM; in data set [3] (Homo sapiens, HCT-15) it was 18 nM; in data set [4] (Homo sapiens, HT-1080, 72 h) it was 204 nM; in [5] (Homo sapiens, 72 h), 90 nM; in [6] (Homo sapiens, 72 h), 170 nM. For the same compound, the IC50 stood at 46 nM in [7] (Homo sapiens, 72 h); 17 nM in [8] (Homo sapiens); 4 nM in data set [9] (Homo sapiens).
For the compound `CCCn1nc2c(n1)C(=O)c1cnncc1C2=O` [Example 4b, 2-n-propyl-2H-[1,2,3]triazolo[4,5-g]phthalazin-4,9-dione], the IC50 in data set [1] (Homo sapiens) came out at 9 nM; in data set [2] (Homo sapiens), 19 nM; in [3] (Homo sapiens, HCT-15), 18 nM; in [4] (Homo sapiens, HT-1080, 72 h) it was 33 nM; in [5] (Homo sapiens, 72 h), 157 nM; in data set [6] (Homo sapiens, 72 h), 57 nM. In addition, the 50% inhibitory concentration (IC50) was determined as 43 nM in data set [7] (Homo sapiens, 72 h); 18 nM in [8] (Homo sapiens); 9 nM in data set [9] (Homo sapiens).
With `Cc1nc2c(n1-c1ccc(Br)cc1)C(=O)c1nccnc1C2=O` [2-methyl-4,9-dehydro-1-(4-bromophenyl)-1H-imidazo[4,5-g]-quinoxaline-4,9-dione], the “cytotoxicity compared with cisplatin or doxorubicin” value in data set [10] was “higher than that of cisplatin or doxorubicin”.
`O=C1c2cnncc2C(=O)c2[nH]nnc21` [Example 1b, 1H-[1,2,3]triazolo[4,5-g]phthalazin-4,9-dione]: the IC50 in [1] (Homo sapiens) was 7640 nM; in data set [2] (Homo sapiens), 9020 nM; in data set [3] (Homo sapiens, HCT-15), above 10000 nM; in data set [4] (Homo sapiens, HT-1080, 72 h) it was above 5000 nM; in data set [5] (Homo sapiens, 72 h), above 5000 nM; in [6] (Homo sapiens, 72 h), above 5000 nM. For the same compound, the IC50 is above 5000 nM in [7] (Homo sapiens, 72 h); above 10000 nM in [8] (Homo sapiens); above 10000 nM in data set [9] (Homo sapiens).
`Cn1nc2c(n1)C(=O)c1cnncc1C2=O` [Example 2b, 2-methyl-2H-[1,2,3]triazolo[4,5-g]phthalazin-4,9-dione]: the IC50 in data set [1] (Homo sapiens) was found to be 0.4 nM; in [2] (Homo sapiens), 2 nM; in [3] (Homo sapiens, HCT-15) it was 20 nM; in data set [4] (Homo sapiens, HT-1080, 72 h), 7.8 nM; in data set [5] (Homo sapiens, 72 h), 124 nM; in [6] (Homo sapiens, 72 h), 132 nM. For the same compound, the IC50 in data set [7] (Homo sapiens, 72 h) worked out at 54 nM; in data set [8] (Homo sapiens), 4 nM; in data set [9] (Homo sapiens) it was 2 nM. In data set [1] (setting [11]), the “cytotoxicity rank against SK-OV-3” value is “highest cytotoxicity”. In data set [2] (setting [11]), the “cytotoxicity rank against A549” value is given as “highest cytotoxicity”. Besides, the “cytotoxicity rank against HT1080” value in data set [4] (setting [11]) was “highest cytotoxicity”. Moreover, in [8] (setting [11]), the “cytotoxicity rank against XF498” value is “highest cytotoxicity”. Besides, the “cytotoxicity rank against SK-MEL-2” value in data set [9] (setting [11]) is “highest cytotoxicity”.
Turning to `COc1cccc2c1C(=O)c1c(O)c3c(c(O)c1C2=O)C[C@@](O)(C(=O)CO)C[C@@H]3O[C@H]1C[C@H](N)[C@H](O)[C@H](C)O1` [Doxorubicin, reference compound], the IC50 in [1] (Homo sapiens) was found to be 41 nM; in data set [2] (Homo sapiens), 22 nM; in data set [3] (Homo sapiens, HCT-15), 251 nM; in [4] (Homo sapiens, HT-1080, 72 h) it was 22 nM; in data set [5] (Homo sapiens, 72 h) it was 44 nM; in data set [6] (Homo sapiens, 72 h) it was 98 nM. Moreover, the IC50 is 52 nM in [7] (Homo sapiens, 72 h); 44 nM in [8] (Homo sapiens); 19 nM in data set [9] (Homo sapiens).
In the case of `CCCn1nnc2c1C(=O)c1cnncc1C2=O` [Example 4a, 1-n-propyl-1H-[1,2,3]triazolo[4,5-g]phthalazin-4,9-dione], the IC50 is 14 nM in data set [1] (Homo sapiens); 26 nM in [2] (Homo sapiens); 176 nM in data set [3] (Homo sapiens, HCT-15); 75 nM in data set [4] (Homo sapiens, HT-1080, 72 h); 83 nM in [5] (Homo sapiens, 72 h); 353 nM in data set [6] (Homo sapiens, 72 h). Moreover, the IC50 is 212 nM in data set [7] (Homo sapiens, 72 h); 85 nM in [8] (Homo sapiens); 20 nM in data set [9] (Homo sapiens).
As for `Cn1nnc2c1C(=O)c1cnncc1C2=O` [Example 2a, 1-methyl-1H-[1,2,3]triazolo[4,5-g]phthalazin-4,9-dione], the 50% inhibitory concentration (IC50) turned out to be 3 nM in data set [1] (Homo sapiens); 4 nM in data set [2] (Homo sapiens); 103 nM in data set [3] (Homo sapiens, HCT-15); 73 nM in [4] (Homo sapiens, HT-1080, 72 h); 82 nM in data set [5] (Homo sapiens, 72 h); 311 nM in [6] (Homo sapiens, 72 h). Also, the IC50 in [7] (Homo sapiens, 72 h) came to 241 nM; in data set [8] (Homo sapiens), 35 nM; in [9] (Homo sapiens), 8 nM.
In the case of `Cc1c2ccncc2c(C)c2c1[nH]c1ccccc12` [Ellipticin, reference compound], the IC50 in [1] amounted to 1470 nM; in data set [2], 1320 nM; in data set [3], 3720 nM; in data set [4], 1930 nM; in [5], 3370 nM; in data set [6], 2620 nM. Further, the IC50 in data set [7] was 2990 nM; in [8] it was 3640 nM; in data set [9], 2410 nM.
For `CCCCn1nc2c(n1)C(=O)c1cnncc1C2=O` [Example 5b, 2-n-butyl-2H-[1,2,3]triazolo[4,5-g]phthalazin-4,9-dione], the IC50 was 17 nM in data set [1] (Homo sapiens); 18 nM in data set [2] (Homo sapiens); 18 nM in data set [3] (Homo sapiens, HCT-15); 30 nM in data set [4] (Homo sapiens, HT-1080, 72 h); 151 nM in data set [5] (Homo sapiens, 72 h); 66 nM in [6] (Homo sapiens, 72 h). For the same compound, the IC50 in data set [7] (Homo sapiens, 72 h) came out at 50 nM; in data set [8] (Homo sapiens) it was 19 nM; in data set [9] (Homo sapiens) it was 15 nM.
Consider `CCn1nnc2c1C(=O)c1cnncc1C2=O` [Example 3a, 1-ethyl-1H-[1,2,3]triazolo[4,5-g]phthalazin-4,9-dione], for which the IC50 in data set [1] (Homo sapiens) was determined as 3 nM; in [2] (Homo sapiens) it was 6 nM; in [3] (Homo sapiens, HCT-15), 39 nM; in data set [4] (Homo sapiens, HT-1080, 72 h), 68 nM; in data set [5] (Homo sapiens, 72 h), 56 nM; in [6] (Homo sapiens, 72 h) it was 341 nM. Also, the IC50 in [7] (Homo sapiens, 72 h) came out at 126 nM; in [8] (Homo sapiens), 34 nM; in data set [9] (Homo sapiens), 8 nM.
For the compound `COc1ccc(Cn2nnc3c2C(=O)c2cnncc2C3=O)cc1` [Example 1a, 1-(4-methoxybenzyl)-1H-[1,2,3]triazolo[4,5-g]phthalazin-4,9-dione], the IC50 in data set [1] (Homo sapiens) was 12 nM; in [2] (Homo sapiens), 54 nM; in data set [3] (Homo sapiens, HCT-15) it was 59 nM; in data set [4] (Homo sapiens, HT-1080, 72 h), 330 nM; in data set [5] (Homo sapiens, 72 h), 130 nM; in data set [6] (Homo sapiens, 72 h), 2380 nM. Moreover, the IC50 stood at 257 nM in [7] (Homo sapiens, 72 h); 118 nM in data set [8] (Homo sapiens); 41 nM in data set [9] (Homo sapiens).

(Values after patent US7160884B2, “1-/2-substituted-1H/-2H-[1,2,3]triazolo[4,5-g]phthalazine-4,9-dione compound, process for the preparation thereof and pharmaceutical composition comprising the same” (EWHA University-Industry Collaboration Foundation, priority 2005, dated 2007).)
